Assay results from US20250121000A1, “INHALABLE BICARBONATE COMPOSITIONS AND DELIVERY SYSTEMS THEREFOR” (Nebulize Performance Inc., priority 2023, published 2025).
Read-outs that look alike come from different tables or passages of the source.

Experiments:
[1] = upwards of / over 20 grams, literature studies, cited from earlier work
[2] = for gastrointestinal discomfort or side effects / self-reported breathing difficulties (chest tightness, shortness of breath, respiratory difficulty) and nausea: inhaled nebulized 3.5% sodium bicarbonate; for self-reported breathing difficulties (chest tightness, shortness of breath, respiratory difficulty) and nausea: all participants
Method: A randomized, single-blinded, crossover design was used. Participants completed a repeated sprint exercise protocol to total exhaustion in an indoor facility after inhaling 20 mL of a 3.5% sodium bicarbonate solution (700 mg) dissolved in water or a placebo (pure water) prior to the sprint test. Participants inhaled the solutions through a commercially available nebulizer (Pari Vios Nebulizer System™) for 30 min while seated at rest over 5 bouts of 6 min (4 mL/bout) prior to completing the first sprint set and were required to breathe the same solution for 60 seconds in between each set (described below).
The order of placebo or bicarbonate was assigned with a numbering system of 1 and 2 respectively, where half of the participants were randomly assigned a 1-2 vs 2-1 order with each trial separated by one week. Following the last trial, participants were asked to guess the order of trials. […] Participants were also asked to describe any noticeably breathing difficulties including chest tightness, shortness of breath or any sign of respiratory difficulty, as well as nausea.

[3] = inhaled 3.5% sodium bicarbonate, sets 1-4, p<0.05
[4] = participants that completed more than 4 sprint sets, non-significant trend

O=C([O-])O.[Na+] [sodium bicarbonate]
faster sprint times after oral ingestion ([1]; listed as bicarbonate): ≤ 5% | faster sprint times after oral ingestion [1]: < 5% | average improvement in sprint time vs placebo, first half of each set (shuttle sprints 1-3) [2, 3]: 3.5% | improvement in average sprint time vs placebo, sprints 4-6 of each set [2, 3]: 4.5% | decrease in average sprint time vs placebo, overall (sprints 1-6 of each set) ([2]; inhaled 20 mL of 3.5% sodium bicarbonate solution (700 mg) by nebulizer plus 60 s between sets, 4 sets of 6x40 m sprints, p<0.05): 4.1% | gastrointestinal discomfort or side effects [2]: no participants experienced any symptoms of gastrointestinal discomfort or side effects | self-reported breathing difficulties (chest tightness, shortness of breath, respiratory difficulty) and nausea [2]: free of any such distress | self-reported breathing difficulties (chest tightness, shortness of breath, respiratory difficulty) and nausea ([2]; listed as nebulized bicarbonate): free of respiratory distress | gastrointestinal discomfort or side effects ([2]; listed as Nebulized bicarbonate): without detrimental side effects | improvement in performance (faster time) in sprint set 5 [2, 4]: 5% | improvement in performance (faster time) in sprint set 6 [2, 4]: 7%
